Values joined by “and” are separate entries in the source; they are usually repeats but may differ in a detail not shown here. Equal values may be shown once.
System: K98450-129-R-PDC multicell spheroids, viability
Assay: Anticancer human tumor K98450-129-R-PDC patient-derived colon adenocarcinoma cell line growth inhibition [PI3K]
Conditions: for viability, T/C: stronger effect = lower value; active means viability on the fitted dose curve at most 10% of control; inactive means the rest
In short: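 Spheroid viability read-out. Co-cultures contained the tumor line plus HUVEC and human MSCs. Each agent was paired with a PI3K inhibitor (inavolisib, alpelisib, duvelisib, copanlisib) across half-log dilutions starting at clinical Cmax, or at 10 microM when Cmax was unknown.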

[1] = curve of first compound, second compound 0.00316 µM
[2] = curve of first compound, second compound 0.01 µM
[3] = curve of first compound, second compound 0.0316 µM
[4] = curve of first compound, second compound 0.1 µM
[5] = curve of first compound, second compound 0.316 µM
[6] = curve of first compound, second compound 1 µM
[7] = second compound 0.0316 µM, first compound 0.0316 µM
[8] = second compound 0.0316 µM, first compound 0.1 µM
[9] = second compound 0.0316 µM, first compound 0.316 µM
[10] = second compound 0.0316 µM, first compound 1 µM
[11] = second compound 0.0316 µM, first compound 3.16 µM
[12] = second compound 0.0316 µM, first compound 10 µM
[13] = second compound 0.1 µM, first compound 0.0316 µM
[14] = second compound 0.1 µM, first compound 0.1 µM
[15] = second compound 0.1 µM, first compound 0.316 µM
[16] = second compound 0.1 µM, first compound 1 µM
[17] = second compound 0.1 µM, first compound 3.16 µM
[18] = second compound 0.1 µM, first compound 10 µM
[19] = second compound 0.316 µM, first compound 0.0316 µM
[20] = second compound 0.316 µM, first compound 0.1 µM
[21] = second compound 0.316 µM, first compound 0.316 µM
[22] = second compound 0.316 µM, first compound 1 µM
[23] = second compound 0.316 µM, first compound 3.16 µM
[24] = second compound 0.316 µM, first compound 10 µM
[25] = second compound 1 µM, first compound 0.0316 µM
[26] = second compound 1 µM, first compound 0.1 µM
[27] = second compound 1 µM, first compound 0.316 µM
[28] = second compound 1 µM, first compound 1 µM
[29] = second compound 1 µM, first compound 3.16 µM
[30] = second compound 1 µM, first compound 10 µM
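Further: spheroids exposed to agents for seven days before read-out.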

Cn1ncc(Cl)c1-c1cc(C(=O)NC(CN)Cc2cccc(F)c2)sc1Cl (stereo not drawn) + COc1c(OCCCN2CCOCC2)ccc2c3n(c(=NC(=O)c4cnc(N)nc4)nc12)CCN3
inactive: viability, T/C (second compound 0.00316 µM, first compound 0.0316 µM) 112% | viability, T/C (second compound 0.00316 µM, first compound 0.1 µM) 101% | viability, T/C (second compound 0.00316 µM, first compound 0.316 µM) 99.2% | viability, T/C (second compound 0.00316 µM, first compound 1 µM) 98.8% | viability, T/C (second compound 0.00316 µM, first compound 3.16 µM) 89.2% | viability, T/C (second compound 0.00316 µM, first compound 10 µM) 63.9% | viability, T/C (second compound 0.01 µM, first compound 0.0316 µM) 117% | viability, T/C (second compound 0.01 µM, first compound 0.1 µM) 103% | viability, T/C (second compound 0.01 µM, first compound 0.316 µM) 103% | viability, T/C (second compound 0.01 µM, first compound 1 µM) 83.5% | viability, T/C (second compound 0.01 µM, first compound 3.16 µM) 78.9% | viability, T/C (second compound 0.01 µM, first compound 10 µM) 76% | viability, T/C [7] 86.9% | viability, T/C [8] 99.8% | viability, T/C [9] 90.9% | viability, T/C [10] 78.9% | viability, T/C [11] 89% | viability, T/C [12] 58.5% | viability, T/C [13] 72.4% | viability, T/C [14] 70.4% | viability, T/C [15] 78.9% | viability, T/C [16] 83.3% | viability, T/C [17] 69.5% | viability, T/C [18] 70.3% | viability, T/C [19] 64.6% | viability, T/C [20] 68.4% | viability, T/C [21] 70.6% | viability, T/C [22] 47.8% | viability, T/C [23] 80.4% | viability, T/C [24] 51% | viability, T/C [25] 52.4% | viability, T/C [26] 71.5% | viability, T/C [27] 48.7% | viability, T/C [28] 65.7% | viability, T/C [29] 59.8% | viability, T/C [30] 41.7%
> 10 µM: IC50 [1] | IC50 [2] | IC50 [3] | IC50 [4] | IC50 [5] | IC50 [6]

CC(C)NCC(C(=O)N1CCN(c2ncnc3c2C(C)CC3O)CC1)c1ccc(Cl)cc1 (stereo not drawn)
inactive: viability, T/C (compound 0.0316 µM) 94.2% and 100% and 107% (2×) | viability, T/C (compound 0.1 µM) 100% (2×) and 93.4% and 105% | viability, T/C (compound 0.316 µM) 105% [middle of 4 runs] | viability, T/C (compound 1 µM) 106% (2×) and 92.7% and 87.9% | viability, T/C (compound 3.16 µM) 93% [middle of 4 runs] | viability, T/C (compound 10 µM) 99.5% and 102% (2×) and 99.9%
> 10 µM: IC50 (curve of compound)

C#Cc1c(F)ccc2cc(O)cc(-c3ncc4c(N5CC6CCC(C5)N6)nc(OCC56CCCN5CC(F)C6)nc4c3F)c12 (stereo not drawn) + Cc1nc(NC(=O)N2CCCC2C(N)=O)sc1-c1ccnc(C(C)(C)C(F)(F)F)c1
> 10 µM: IC50 [3] | IC50 [4] | IC50 [5] | IC50 [6] | IC50 (curve of first compound, second compound 3.16 µM)
7.68 µM: IC50 (curve of first compound, second compound 10 µM)
inactive: viability, T/C [7] 108% | viability, T/C [8] 97.4% | viability, T/C [9] 99.1% | viability, T/C [10] 95.5% | viability, T/C [11] 93.7% | viability, T/C [12] 83.2% | viability, T/C [13] 122% | viability, T/C [14] 97% | viability, T/C [15] 102% | viability, T/C [16] 88.7% | viability, T/C [17] 92.9% | viability, T/C [18] 82.2% | viability, T/C [19] 93.4% | viability, T/C [20] 96.2% | viability, T/C [21] 93.7% | viability, T/C [22] 83.8% | viability, T/C [23] 90.2% | viability, T/C [24] 77.7% | viability, T/C [25] 89.5% | viability, T/C [26] 92.4% | viability, T/C [27] 89% | viability, T/C [28] 85% | viability, T/C [29] 87.8% | viability, T/C [30] 76.5% | viability, T/C (second compound 3.16 µM, first compound 0.0316 µM) 74.3% | viability, T/C (second compound 3.16 µM, first compound 0.1 µM) 78.9% | viability, T/C (second compound 3.16 µM, first compound 0.316 µM) 87.3% | viability, T/C (second compound 3.16 µM, first compound 1 µM) 75.3% | viability, T/C (second compound 3.16 µM, first compound 3.16 µM) 77.4% | viability, T/C (second compound 3.16 µM, first compound 10 µM) 63.5% | viability, T/C (second compound 10 µM, first compound 0.0316 µM) 75.6% | viability, T/C (second compound 10 µM, first compound 0.1 µM) 69.2% | viability, T/C (second compound 10 µM, first compound 0.316 µM) 67.3% | viability, T/C (second compound 10 µM, first compound 1 µM) 63.1% | viability, T/C (second compound 10 µM, first compound 3.16 µM) 57.6% | viability, T/C (second compound 10 µM, first compound 10 µM) 47.3%

Cn1cnc2c(F)c(Nc3ccc(Br)cc3Cl)c(C(=O)NOCCO)cc21 + COc1c(OCCCN2CCOCC2)ccc2c3n(c(=NC(=O)c4cnc(N)nc4)nc12)CCN3
< 0.00949 µM: IC50 [6]
1 µM: IC50 [2]
0.303 µM: IC50 [4]
0.102 µM: IC50 [5]
0.663 µM: IC50 [1]
0.351 µM: IC50 [3]
inactive: viability, T/C (second compound 0.00316 µM, first compound 0.00949 µM) 98.5% | viability, T/C (second compound 0.00316 µM, first compound 0.03 µM) 77.5% | viability, T/C (second compound 0.00316 µM, first compound 0.0949 µM) 76.3% | viability, T/C (second compound 0.00316 µM, first compound 0.3 µM) 68.8% | viability, T/C (second compound 0.00316 µM, first compound 0.949 µM) 41.5% | viability, T/C (second compound 0.00316 µM, first compound 3 µM) 21.3% | viability, T/C (second compound 0.01 µM, first compound 0.00949 µM) 94.7% | viability, T/C (second compound 0.01 µM, first compound 0.03 µM) 77.9% | viability, T/C (second compound 0.01 µM, first compound 0.0949 µM) 74.6% | viability, T/C (second compound 0.01 µM, first compound 0.3 µM) 65.5% | viability, T/C (second compound 0.01 µM, first compound 0.949 µM) 58.9% | viability, T/C (second compound 0.01 µM, first compound 3 µM) 18.2% | viability, T/C (second compound 0.0316 µM, first compound 0.00949 µM) 91.6% | viability, T/C (second compound 0.0316 µM, first compound 0.03 µM) 86.1% | viability, T/C (second compound 0.0316 µM, first compound 0.0949 µM) 66% | viability, T/C (second compound 0.0316 µM, first compound 0.3 µM) 50.2% | viability, T/C (second compound 0.0316 µM, first compound 0.949 µM) 37.7% | viability, T/C (second compound 0.0316 µM, first compound 3 µM) 14.7% | viability, T/C (second compound 0.1 µM, first compound 0.00949 µM) 87.4% | viability, T/C (second compound 0.1 µM, first compound 0.03 µM) 71.4% | viability, T/C (second compound 0.1 µM, first compound 0.0949 µM) 71.8% | viability, T/C (second compound 0.1 µM, first compound 0.3 µM) 49.9% | viability, T/C (second compound 0.1 µM, first compound 0.949 µM) 26.7% | viability, T/C (second compound 0.316 µM, first compound 0.00949 µM) 56.4% | viability, T/C (second compound 0.316 µM, first compound 0.03 µM) 49.9% | viability, T/C (second compound 0.316 µM, first compound 0.0949 µM) 47.8% | viability, T/C (second compound 0.316 µM, first compound 0.3 µM) 39.2% | viability, T/C (second compound 0.316 µM, first compound 0.949 µM) 11.4% | viability, T/C (second compound 1 µM, first compound 0.00949 µM) 45.9% | viability, T/C (second compound 1 µM, first compound 0.03 µM) 37.8% | viability, T/C (second compound 1 µM, first compound 0.0949 µM) 29.8% | viability, T/C (second compound 1 µM, first compound 0.3 µM) 22.6% | viability, T/C (second compound 1 µM, first compound 0.949 µM) 9.08%
active: viability, T/C (second compound 0.1 µM, first compound 3 µM) 5.26% | viability, T/C (second compound 0.316 µM, first compound 3 µM) 6.72% | viability, T/C (second compound 1 µM, first compound 3 µM) 4.95%

Source: PubChem BioAssay AID1963961 (Molecular Pharmacology Branch, DTP, NCI, 2024)
